The results in this text go back to EP4534542A1, “THIOSUGAR BASED ISOTHIOCYANATES AND USES THEREOF” (Universidad de Sevilla, priority 2023, dated 2025).

Test [1] relates to HaCaT cells. The test is described as follows: Cell viability assay (resazurin), cytotoxicity in non-malignant cells. To be noted: Homo sapiens, HaCaT, read-out: IC50 HaCaT (Non-malignant keratinocyte). The class given is cell-based, human. As to the method: (§1) Cells were grown in Dulbecco's Modified Eagle's Medium (DMEM) supplemented with 100 U/mL penicillin, 100 µg/mL streptomycin and 10% fetal bovine serum. HL60 cell line (acute myeloid leukaemia, AML) was obtained from ATCC. It was cultured in IMDM medium supplemented with 100 U/mL penicillin, 100 µg/mL streptomycin and 10% fetal bovine serum. U937 (AML) and Jurkat cells (ALL) were obtained from DMSZ, Braunschweig, Germany, and ATCC, respectively. They were cultivated in RPMI medium, supplemented with 100 U/mL penicillin, 100 µg/mL streptomycin and 10% fetal bovine serum. […] All cell lines were cultured at 37 ° C with 5% CO2 in a humidified incubator. Cell culture reagents were purchased from Biowest. Exponentially growing cells (3000-6000 cells per well) were seeded in 96-well plates. After 24 hours, cells were treated with the drugs for 72 hours. The cell viability was then estimated with the resazurin assay, a colorimetric technique based on the capability of viable cells to reduce the blue reagent resazurin to the pink-soluble product resorufin. The amount of resorufin produced is proportional to the number of viable cells. Briefly, cells were washed once with phosphate buffered saline (PBS) and 150 µL resazurin (20 µg/mL in medium) was added to each well. The plates were incubated for 3 hours at 37 °C, 5% CO2, and finally optical densities were measured at 540 and 620 nm with a multiwell plate spectrophotometer reader (Multiskan EX Labsystems). Cell viability was calculated as a percentage compared to non-treated cells. The results were expressed as the means ± standard error of the mean (SEM). All data are from at least three independent experiments.
Background: Alamar Blue is a resazurin reagent that responds to reducing activity.

Test [2] relates to A549 (human lung adenocarcinoma cells). The test is described as follows: Cell viability assay (resazurin), cytotoxic activity against solid tumours. Particulars: for IC50: Homo sapiens, read-out: IC50 A549 (Lung adenocarcino ma); for S.I. A549 (Selectivity Index): IC50 HaCaT divided by IC50 A549, mean of independent experiments. Type of test: cell-based. The procedure: as §1, with “The plates were incubated for 3 hours at 37 °C, 5% CO2, and finally optical densities were measured at 540 and 620 nm with a multiwell plate spectrophotometer reader (Multiskan EX Labsystems).” left out, “experiments. The selectivity index (S.I.) values were calculated over each cancer cell line as the mean of the IC50 value in the non-malignant cell line (HaCaT) by the IC50 in the respective cancer cell line obtained in each independent experiment.” for “experiments.”

The subject of test [3] is MeWo (human melanoma cells). The test is described as above. The class given is cell-based. To be noted: for IC50: Homo sapiens, MeWo, read-out: IC50 MeWo (Melanoma; BRAF WT); for S.I. MeWo (Selectivity Index): IC50 HaCaT divided by IC50 MeWo, mean of independent experiments. The procedure:
as §1, with “The plates were incubated for 3 hours at 37 °C, 5% CO2, and finally optical densities were measured at 540 and 620 nm with a multiwell plate spectrophotometer reader (Multiskan EX Labsystems).” left out, “experiments. The selectivity index (S.I.) values were calculated over each cancer cell line as the mean of the IC50 value in the non-malignant cell line (HaCaT) by the IC50 in the respective cancer cell line obtained in each independent experiment.” for “experiments.”

The test system of test [4] is T24 (human bladder cancer cells). Described as above. Type of test: cell-based. To be noted: for IC50: Homo sapiens, read-out: IC50 T24 (Bladder cancer); for S.I. T24 (Selectivity Index): IC50 HaCaT divided by IC50 T24, mean of independent experiments. The procedure:
as §1, with “The plates were incubated for 3 hours at 37 °C, 5% CO2, and finally optical densities were measured at 540 and 620 nm with a multiwell plate spectrophotometer reader (Multiskan EX Labsystems).” left out, “experiments. The selectivity index (S.I.) values were calculated over each cancer cell line as the mean of the IC50 value in the non-malignant cell line (HaCaT) by the IC50 in the respective cancer cell line obtained in each independent experiment.” for “experiments.”

The subject of test [5] is HL60 (Acute myeloid leukaemia). The test is described as follows: Antileukemic activity, cell viability (CCK-8 Cell Counting Kit). Type of test: cell-based. To be noted: Homo sapiens, HL-60; 18 h incubation, compounds 0 - 100 µM; read-out: IC50 Cancer cells HL60 (Acute myeloid leukaemia). As to the method: (§2) HaCaT cells (human keratinocytes, reference control), A549 (human lung adenocarcinoma cells), MeWo (human melanoma cells) and T24 (human bladder cancer cells) were purchased from Cell Lines Service (CLS). Cells were grown in Dulbecco's Modified Eagle's Medium (DMEM) supplemented with 100 U/mL penicillin, 100 µg/mL streptomycin and 10% fetal bovine serum. HL60 cell line (acute myeloid leukaemia, AML) was obtained from ATCC. It was cultured in IMDM medium supplemented with 100 U/mL penicillin, 100 µg/mL streptomycin and 10% fetal bovine serum. U937 (AML) and Jurkat cells (ALL) were obtained from DMSZ, Braunschweig, Germany, and ATCC, respectively. They were cultivated in RPMI medium, supplemented with 100 U/mL penicillin, 100 µg/mL streptomycin and 10% fetal bovine serum. OPM-2 cell line (MM), was obtained from DMSZ, Braunschweig, Germany and cultured in RPMI medium supplemented with 100 U/mL penicillin, 100 µg/mL streptomycin, 10% fetal bovine serum and 1X GlutaMAXTM. All cell lines were cultured at 37 ° C with 5% CO2 in a humidified incubator. Cell culture reagents were purchased from Biowest.
(§3) For the leukemic cell lines, the CCK-8 Cell Counting Kit (Dojindo Molecular Technologies) was used according to manufacturers instructions. Briefly, 50.000 cells were seeded in each well of a 96 well plate, and they were treated with increased amounts (0 - 100 µM) of each of the compounds, and incubated for 18 h at 37 °C, 5% CO2. After this period, 7 µl of the CCK-8 reagent were added to each well, and cells were further incubated for 2 h at 37 °C, 5% CO2. OD at 450 nm was obtained using a MultiskanTM GO microplate reader (Thermo Fisher Scientific, Waltham, MA, EE.UU). Cell viability in each condition was normalized to the measurement obtained in the non treated samples (100%), and were represented as average ± standard error of the mean (SEM).
(In general: Formazan colour is commonly taken as a measure of viable cells.)

Test [6] deals with Jurkat (Acute lymphoblastic leukaemia). The description is as above. Type of test: cell-based. Particulars: Homo sapiens, 18 h incubation, compounds 0 - 100 µM, read-out: IC50 Cancer cells Jurkat (Acute lymphoblastic leukaemia). As to the method: as §2, §3
Test [7] relates to OPM-2 (Multiple myeloma). The test is described as above. Type of test: cell-based. To be noted: Homo sapiens, 18 h incubation, compounds 0 - 100 µM, read-out: IC50 Cancer cells OPM-2 (Multiple myeloma). As to the method:
as §2, §3

Test [8] concerns U937 (Acute myeloid leukaemia). Described as above. Particulars: Homo sapiens, U-937; 18 h incubation, compounds 0 - 100 µM; read-out: IC50 Cancer cells U937 (Acute myeloid leukaemia). Type of test: cell-based. As to the method: as §2, §3
The mark [9] stands for this setting: 72 h treatment, resazurin assay, mean ± SEM.
Where [10] appears, read: A549, 72 h treatment, resazurin assay, mean ± SEM.

Read-outs that look alike come from different tables or passages of the source.

Broadly, the IC50 is the concentration that gives 50% inhibition. Consider `CC(=O)OCC1OC([S+](C)[O-])C(OC(C)=O)C(N=C=S)C1OC(C)=O` [(SS)-16β, Methyl 2,4,6-tri-O-acetyl-3-isothiocyanato-1,3-dideoxy-1-(S)-sulfinyl-β-D-glucopyranoside], for which the 50% inhibitory concentration (IC50) is greater than 100 µM in test [1] (setting [9]); 109 ± 23.7 µM in test [2] (setting [10]); 122 ± 20.7 µM in test [3] (setting [9]); 94.2 ± 13.2 µM in test [4] (setting [9]); 36.9 µM in test [5]; 128 µM in test [6]. Further, the half-maximal inhibitory concentration (IC50) in test [7] was 64.9 µM; in test [8], roughly 51.2 µM.

Regarding `CC[S@+]([O-])[C@@H]1O[C@H](COC(C)=O)[C@@H](OC(C)=O)[C@H](N=C=S)[C@H]1OC(C)=O` [(SS)-17β, Ethyl 2,4,6-tri-O-acetyl-3-isotiocianato-1,3-dideoxy-1[(S)-sulfinyl]-β-D-glucopyranose], the IC50 in test [1] (setting [9]) is 85.2 ± 12.7 µM; in test [2] (setting [10]), 56.4 ± 6.6 µM; in test [3] (setting [9]), 51.5 ± 7.9 µM; in test [4] (setting [9]) it was 42.3 ± 3.2 µM; in test [5] it was roughly 25.3 µM; in test [6] it was 89.5 µM. Also, the 50% inhibitory concentration (IC50) in test [7] came out at 52.4 µM; in test [8], 45.6 µM. Also, in test [2], the “S.I. A549 (Selectivity Index)” value amounted to 1.5±0.1. Moreover, the “S.I. MeWo (Selectivity Index)” value in test [3] is reported as 1.7±0.0. Moreover, in test [4], the “S.I. T24 (Selectivity Index)” value is reported as 2.0±0.2.

With `CC(=O)OC[C@H]1O[C@@H]([S@@+]([O-])c2ccccc2)[C@H](OC(C)=O)[C@@H](N=C=S)[C@@H]1OC(C)=O` [(SS)-18β, Phenyl 2,4,6-tri-O-acetyl-3-isotiocianato-1,3-dideoxy-1[(S)-sulfinyl]-β-D-glucopyranose], the IC50 in test [1] (setting [9]) was 24.2 ± 3.9 µM; in test [2] (setting [10]), 16.8 ± 2.9 µM; in test [3] (setting [9]) it was 16 ± 2.6 µM; in test [4] (setting [9]) it was 12.9 ± 3 µM; in test [5], roughly 6.6 µM; in test [6], 20 µM. For the same compound, the IC50 in test [7] is 16.6 µM; in test [8] it was roughly 43.3 µM. In addition, the “S.I. A549 (Selectivity Index)” value in test [2] worked out at 1.5±0.1. In addition, the “S.I. MeWo (Selectivity Index)” value in test [3] is on record as 1.5±0.1. In addition, the “S.I. T24 (Selectivity Index)” value in test [4] is 2.0±0.3.

As to `CS(=O)(=O)CCCN=C=S` [Compound 6, 1-isothiocyanato-3-(methylsulfonyl)propane, reference compound], the IC50 in test [1] (72 h) worked out at 35.9 ± 7.8 µM; in test [2] (A549, 72 h), 25.2 ± 9.3 µM; in test [3] (72 h), 29.5 ± 8.7 µM; in test [4] (72 h) it was 10.7 ± 2.2 µM; in test [5], 7 µM; in test [6], 10.3 µM. In addition, the results for the IC50 in test [7] and in test [8] were 13 µM and 8.4 µM, respectively. Also, the “S.I. A549 (Selectivity Index)” value in test [2] is on record as 1.9±0.4. Further, in test [3], the “S.I. MeWo (Selectivity Index)” value is 1.3±0.2. Further, the “S.I. T24 (Selectivity Index)” value in test [4] turned out to be 3.3±0.1.

For the compound `CS[C@@H]1O[C@H](COC(C)=O)[C@@H](OC(C)=O)[C@H](N=C=S)[C@H]1OC(C)=O` [Compound 13β, Methyl 2,4,6-tri-O-acetyl-3-isothiocyanato-1,3-dideoxy-1-thio-β-D-glucopyranoside], the IC50 is 70 ± 4.6 µM in test [1] (setting [9]); 51.4 ± 9.2 µM in test [2] (setting [10]); 55.9 ± 4.8 µM in test [3] (setting [9]); 42 ± 7.5 µM in test [4] (setting [9]); roughly 13 µM in test [5]; 18.7 µM in test [6]. The IC50 in test [7] was 24.9 µM; in test [8], roughly 24.2 µM. The “S.I. A549 (Selectivity Index)” value in test [2] is listed as 1.5±0.2. Besides, the “S.I. MeWo (Selectivity Index)” value in test [3] amounted to 1.3±0.0. Also, the “S.I. T24 (Selectivity Index)” value in test [4] was 1.8±0.2.

Consider `CCS[C@H]1O[C@H](COC(C)=O)[C@@H](OC(C)=O)[C@H](N=C=S)[C@H]1OC(C)=O` [Compound 14α, Ethyl 2,4,6-tri-O-acetyl-3-isothiocyanato-1,3-dideoxy-1-thio-α-D-glucopyranoside], for which the concentration for half-maximal inhibition (IC50) worked out at 51.3 ± 1.8 µM in test [1] (setting [9]); 40.6 ± 9 µM in test [2] (setting [10]); 46.4 ± 7.6 µM in test [3] (setting [9]); 40.7 ± 6.9 µM in test [4] (setting [9]); 9.7 µM in test [5]; 12.5 µM in test [6]. In addition, the IC50 was 17 µM in test [7] and 25.1 µM in test [8]. Besides, the “S.I. A549 (Selectivity Index)” value in test [2] came to 1.5±0.3. In addition, the “S.I. MeWo (Selectivity Index)” value in test [3] is listed as 1.2±0.2. Besides, the “S.I. T24 (Selectivity Index)” value in test [4] is reported as 1.4±0.2.

`CCS[C@@H]1O[C@H](COC(C)=O)[C@@H](OC(C)=O)[C@H](N=C=S)[C@H]1OC(C)=O` [Compound 14β, Ethyl 2,4,6-tri-O-acetyl-3-isothiocyanato-1,3-dideoxy-1-thio-β-D-glucopyranoside]: the IC50 in test [1] (setting [9]) was 72.2 ± 13.2 µM; in test [2] (setting [10]), 45.1 ± 6.8 µM; in test [3] (setting [9]) it was 49.9 ± 8.5 µM; in test [4] (setting [9]) it was 42 ± 5.7 µM; in test [5] it was roughly 13 µM; in test [6], 17.8 µM. In addition, the IC50 in test [7] is 20.1 µM; in test [8], roughly 26.7 µM. The “S.I. A549 (Selectivity Index)” value in test [2] was found to be 1.6±0.1. Moreover, the “S.I. MeWo (Selectivity Index)” value in test [3] came to 1.5±0.2. The “S.I. T24 (Selectivity Index)” value in test [4] came to 1.7±0.2.
